Laboratory results as given in ChEMBL document CHEMBL4002621, “Novel 12N-substituted matrinanes as potential anti-coxsackievirus agents” (Bioorg Med Chem Lett, 2017).

Legend:
[1] = Selectivity index, ratio of TC50 for African green monkey Vero cells to IC50 for Coxsackievirus B3 (strain Nancy) infected in African green monkey Vero cells; assay type: toxicity; conditions: read-out: Selectivity Index
[2] = Acute toxicity in po dosed Kunming mouse assessed as effect on body weight and survival administered as single dose measured up to 7 days; assay type: organism-based; conditions: in vivo
[3] = Antiviral activity against Coxsackievirus B6 (strain Schmitt) infected in African green monkey Vero cells assessed as reduction in viral-induced cytopathic effect by Reed and Muench analysis; assay type: functional; conditions: Enterovirus B
Coxsackievirus A16 = experiment: Antiviral activity against Coxsackievirus A16 shzh05-1 infected in African green monkey Vero cells assessed as reduction in viral-induced cytopathic effect by Reed and Muench analysis; assay type: functional; conditions: Enterovirus A, shzh05-1, Vero
Coxsackievirus B5 = experiment: Antiviral activity against Coxsackievirus B5 Faulkner infected in African green monkey Vero cells assessed as reduction in viral-induced cytopathic effect by Reed and Muench analysis; assay type: functional; conditions: Enterovirus B
[4] = Selectivity index, ratio of TC50 for African green monkey Vero cells to IC50 for Coxsackievirus B5 Faulkner infected in African green monkey Vero cells; assay type: toxicity; conditions: read-out: Selectivity Index
Coxsackievirus B1 = experiment: Antiviral activity against Coxsackievirus B1 Conn-5 infected in African green monkey Vero cells assessed as reduction in viral-induced cytopathic effect by Reed and Muench analysis; assay type: functional; conditions: Enterovirus B, Conn-5, Vero
[5] = Selectivity index, ratio of TC50 for African green monkey Vero cells to IC50 for Coxsackievirus B2 (strain Ohio-1) infected in African green monkey Vero cells; assay type: toxicity; conditions: read-out: Selectivity Index
[6] = Selectivity index, ratio of TC50 for African green monkey Vero cells to IC50 for Coxsackievirus B4 J.V.B infected in African green monkey Vero cells; assay type: toxicity; conditions: read-out: Selectivity Index
[7] = Selectivity index, ratio of TC50 for African green monkey Vero cells to IC50 for Coxsackievirus B1 Conn-5 infected in African green monkey Vero cells; assay type: toxicity; conditions: read-out: Selectivity Index
[8] = Antiviral activity against Coxsackievirus B2 (strain Ohio-1) infected in African green monkey Vero cells assessed as reduction in viral-induced cytopathic effect by Reed and Muench analysis; assay type: functional; conditions: Enterovirus B
[9] = Selectivity index, ratio of TC50 for African green monkey Vero cells to IC50 for Coxsackievirus B6 (strain Schmitt) infected in African green monkey Vero cells; assay type: toxicity; conditions: read-out: Selectivity Index
[10] = Cytotoxicity against African green monkey Vero cells assessed as growth inhibition after 48 hrs; assay type: cell-based; conditions: chlorocebus sabaeus, read-out: TC50
Coxsackievirus B4 = experiment: Antiviral activity against Coxsackievirus B4 J.V.B infected in African green monkey Vero cells assessed as reduction in viral-induced cytopathic effect by Reed and Muench analysis; assay type: functional; conditions: Enterovirus B
[11] = Selectivity index, ratio of TC50 for African green monkey Vero cells to IC50 for Coxsackievirus A16 shzh05-1 infected in African green monkey Vero cells; assay type: toxicity; conditions: read-out: Selectivity Index
Coxsackievirus B3 = experiment: Antiviral activity against Coxsackievirus B3 (strain Nancy) infected in African green monkey Vero cells assessed as reduction in viral-induced cytopathic effect by Reed and Muench analysis; assay type: functional; conditions: Enterovirus B

`CCCC[C@@H]1[C@H]2CCCN3CCC[C@@H](CN1C(=O)c1cc(OC)c(OC)c(OC)c1)[C@@H]23` showed a selectivity ratio [1] of over 50.6, an LD50 at 168 h [2] of 327 mg/kg and an IC50 [3] of 3.43 µM. For the same molecule, the IC50 (Coxsackievirus A16) was 6.17 µM, the IC50 (Coxsackievirus B5) was 7.41 µM and the selectivity ratio [4] was 15.6. For the same molecule, the IC50 (Coxsackievirus B1) was 4.94 µM, the selectivity ratio [5] was 33.7 and the selectivity ratio [6] was 23.4. For the same molecule, the selectivity ratio [7] was 23.4, the IC50 [8] was 3.43 µM and the selectivity ratio [9] was 33.7. The CC50 at 48 h [10] was 115 to 200 µM, the IC50 (Coxsackievirus B4) was 4.94 µM and the selectivity ratio [11] was 18.7. For the same molecule, the IC50 (Coxsackievirus B3) was 3.95 µM.
`CCCC[C@@H]1[C@H]2CCCN3CCC[C@@H](CN1S(=O)(=O)CCN)[C@@H]23` gave a CC50 at 48 h [10] of 280 µM and an IC50 (Coxsackievirus B3) of over 64.7 µM.
For `CCCC[C@@H]1[C@H]2CCCN3CCC[C@@H](CN1C(=O)CCC)[C@@H]23`, the selectivity ratio [1] was 6.24, the CC50 at 48 h [10] was 200 µM and the IC50 (Coxsackievirus B3) was 32 µM.
With `CCCC[C@@H]1[C@H]2CCCN3CCC[C@@H](CN1Cc1ccccc1)[C@@H]23` the CC50 at 48 h [10] was 96.2 µM and the IC50 (Coxsackievirus B3) was over 22.2 µM.
In the case of `CCCC[C@@H]1[C@H]2CCCN3CCC[C@@H](CN1S(=O)(=O)c1ccc(C(N)=O)cc1)[C@@H]23`, the selectivity ratio [1] is reported as 2.68, the CC50 at 48 h [10] is reported as 331 µM and the IC50 (Coxsackievirus B3) is reported as 124 µM.
Molecule `CCCC[C@@H]1[C@H]2CCCN3CCC[C@@H](CN1S(=O)(=O)c1cccc(C#N)c1)[C@@H]23` has a selectivity ratio [1] of 146, a CC50 at 48 h [10] of 183 µM and an IC50 (Coxsackievirus B3) of 1.26 µM.
With `CCCC[C@@H]1[C@H]2CCCN3CCC[C@@H](CN1S(=O)(=O)c1ccsc1C(=O)O)[C@@H]23` the selectivity ratio [1] was over 13.3, the CC50 at 48 h [10] was over 200 µM and the IC50 (Coxsackievirus B3) was 15 µM.
Molecule `CCCC[C@@H]1[C@H]2CCCN3CCC[C@@H](CN1C(=O)c1ccccc1O)[C@@H]23` has a CC50 at 48 h [10] of 324 µM and an IC50 (Coxsackievirus B3) of over 62.3 µM.
With `CCCC[C@@H]1[C@H]2CCCN3CCC[C@@H](CN1S(=O)(=O)c1cn(C)cn1)[C@@H]23` the CC50 at 48 h [10] was over 200 µM and the IC50 (Coxsackievirus B3) was over 66.7 µM.
With `CCCC[C@@H]1[C@H]2CCCN3CCC[C@@H](CN1S(=O)(=O)c1cccnc1)[C@@H]23` the selectivity ratio [1] was over 148, the LD50 at 168 h [2] was 330 mg/kg and the IC50 [3] was 3.43 µM. For the same molecule, the IC50 (Coxsackievirus A16) was 7.41 µM, the IC50 (Coxsackievirus B5) was 3.43 µM and the selectivity ratio [4] was over 58.3. The IC50 (Coxsackievirus B1) was 2.02 µM, the selectivity ratio [5] was over 59.7 and the selectivity ratio [6] was over 58.3. For the same molecule, the selectivity ratio [7] was over 99, the IC50 [8] was 3.35 µM and the selectivity ratio [9] was over 58.1. The CC50 at 48 h [10] was 200 to 592 µM, the IC50 (Coxsackievirus B4) was 3.43 µM and the selectivity ratio [11] was over 27. The IC50 (Coxsackievirus B3) was 3.99 µM.
With `CCCC[C@@H]1[C@H]2CCCN3CCC[C@@H](CN1C(=O)CC(=O)OC)[C@@H]23` the selectivity ratio [1] was over 4.33, the CC50 at 48 h [10] was over 200 µM and the IC50 (Coxsackievirus B3) was 46.2 µM.
`CCCC[C@@H]1[C@H]2CCCN3CCC[C@@H](CN1C(=O)c1ccc(OC)cc1)[C@@H]23` gave a selectivity ratio [1] of 18.7, a CC50 at 48 h [10] of 116 µM and an IC50 (Coxsackievirus B3) of 6.17 µM.
`CCCC[C@@H]1[C@H]2CCCN3CCC[C@@H](CN1C(=O)c1ccccc1OC(C)=O)[C@@H]23` gave a selectivity ratio [1] of 17.1, a CC50 at 48 h [10] of 241 µM and an IC50 (Coxsackievirus B3) of 14.1 µM.
Work on `CCCC[C@@H]1[C@H]2CCCN3CCC[C@@H](CN1S(=O)(=O)c1cccc(C(N)=O)c1)[C@@H]23` yielded a selectivity ratio [1] of 30.7, a CC50 at 48 h [10] of 230 µM and an IC50 (Coxsackievirus B3) of 7.47 µM.
`CCCC[C@@H]1[C@H]2CCCN3CCC[C@@H](CN1S(=O)(=O)c1ccc4oc(=O)ccc4c1)[C@@H]23` showed a selectivity ratio [1] of 56, a CC50 at 48 h [10] of 180 µM and an IC50 (Coxsackievirus B3) of 3.21 µM.
`NC(=O)c1ncn([C@@H]2O[C@H](CO)[C@@H](O)[C@H]2O)n1` [RIBAVIRIN] gave a selectivity ratio [1] of 16.8, an IC50 (Coxsackievirus A16) of 9620 µM and a selectivity ratio [4] of over 12.3. It also gave a selectivity ratio [7] of over 17.2, an IC50 [8] of over 40900 µM and a selectivity ratio [9] of over 19.6. For the same molecule, the CC50 at 48 h [10] was 6360 to 40900 µM, the IC50 (Coxsackievirus B4) was over 40900 µM and the selectivity ratio [11] was over 4.3. The IC50 (Coxsackievirus B3) was 379 µM.
Work on `CCCC[C@@H]1[C@H]2CCCN3CCC[C@@H](CN1Cc1ccc(C(=O)OC)cc1)[C@@H]23` yielded a selectivity ratio [1] of 15.6, a CC50 at 48 h [10] of 96.2 µM and an IC50 (Coxsackievirus B3) of 6.17 µM.
`CCCC[C@@H]1[C@H]2CCCN3CCC[C@@H](CN1C(=O)N1CCN(S(C)(=O)=O)C1=O)[C@@H]23` gave a selectivity ratio [1] of over 9, a CC50 at 48 h [10] of over 469 µM and an IC50 (Coxsackievirus B3) of 52.1 µM.
With `CCCC[C@@H]1[C@H]2CCCN3CCC[C@@H](CN1S(=O)(=O)c1sc(NC(C)=O)nc1C)[C@@H]23` the selectivity ratio [1] was 46.7, the CC50 at 48 h [10] was 96.2 µM and the IC50 (Coxsackievirus B3) was 2.06 µM.
Work on `CCCC[C@@H]1[C@H]2CCCN3CCC[C@@H](CN1S(=O)(=O)c1sc(N)nc1C)[C@@H]23` yielded a CC50 at 48 h [10] of 233 µM and an IC50 (Coxsackievirus B3) of over 53.8 µM.
Work on `CCCC[C@@H]1[C@H]2CCCN3CCC[C@@H](CN1C(=O)c1c(C)noc1C)[C@@H]23` yielded a selectivity ratio [1] of over 81, a CC50 at 48 h [10] of over 556 µM and an IC50 (Coxsackievirus B3) of 6.87 µM.
Work on `CCCC[C@@H]1[C@H]2CCCN3CCC[C@@H](CN1C(=O)CCC(=O)OC)[C@@H]23` yielded a selectivity ratio [1] of over 18.1, a CC50 at 48 h [10] of over 200 µM and an IC50 (Coxsackievirus B3) of 11.1 µM.
Molecule `CCCC[C@@H]1[C@H]2CCCN3CCC[C@@H](CN1S(=O)(=O)c1ccccc1C(N)=O)[C@@H]23` has a selectivity ratio [1] of 11.8, a CC50 at 48 h [10] of 276 µM and an IC50 (Coxsackievirus B3) of 23.3 µM.
With `CCCC[C@@H]1[C@H]2CCCN3CCC[C@@H](CN1S(=O)(=O)c1cccs1)[C@@H]23` the selectivity ratio [1] was 13, the CC50 at 48 h [10] was 251 µM and the IC50 (Coxsackievirus B3) was 19.4 µM.
For `CCCC[C@@H]1[C@H]2CCCN3CCC[C@@H](CN1S(=O)(=O)c1ccsc1C(=O)OC)[C@@H]23`, the selectivity ratio [1] was over 40.5, the CC50 at 48 h [10] was over 200 µM and the IC50 (Coxsackievirus B3) was 4.94 µM.
